The compounds below were run against GCN2 (Homo sapiens, UniProt Q9P2K8) (assay: GCN2 enzymatic endpoint assay: phosphorylation of GFP-eIF2α measured by TR-FRET (Lanthascreen)). Settings: tested as described in Example 77; compound and/or hydrochloride, dihydrochloride or trifluoroacetic acid salt; read-out: IC 50 Activity.
Assay type: biochemical
Procedure, shortened: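 2 μM ATP, 80 nM GFP-eIF2α, RT, 90 min; EDTA stop. Tb-anti-phospho antibody TR-FRET read, 520/495 nm ratio.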

Sequence of GCN2 (Q9P2K8 whole entry): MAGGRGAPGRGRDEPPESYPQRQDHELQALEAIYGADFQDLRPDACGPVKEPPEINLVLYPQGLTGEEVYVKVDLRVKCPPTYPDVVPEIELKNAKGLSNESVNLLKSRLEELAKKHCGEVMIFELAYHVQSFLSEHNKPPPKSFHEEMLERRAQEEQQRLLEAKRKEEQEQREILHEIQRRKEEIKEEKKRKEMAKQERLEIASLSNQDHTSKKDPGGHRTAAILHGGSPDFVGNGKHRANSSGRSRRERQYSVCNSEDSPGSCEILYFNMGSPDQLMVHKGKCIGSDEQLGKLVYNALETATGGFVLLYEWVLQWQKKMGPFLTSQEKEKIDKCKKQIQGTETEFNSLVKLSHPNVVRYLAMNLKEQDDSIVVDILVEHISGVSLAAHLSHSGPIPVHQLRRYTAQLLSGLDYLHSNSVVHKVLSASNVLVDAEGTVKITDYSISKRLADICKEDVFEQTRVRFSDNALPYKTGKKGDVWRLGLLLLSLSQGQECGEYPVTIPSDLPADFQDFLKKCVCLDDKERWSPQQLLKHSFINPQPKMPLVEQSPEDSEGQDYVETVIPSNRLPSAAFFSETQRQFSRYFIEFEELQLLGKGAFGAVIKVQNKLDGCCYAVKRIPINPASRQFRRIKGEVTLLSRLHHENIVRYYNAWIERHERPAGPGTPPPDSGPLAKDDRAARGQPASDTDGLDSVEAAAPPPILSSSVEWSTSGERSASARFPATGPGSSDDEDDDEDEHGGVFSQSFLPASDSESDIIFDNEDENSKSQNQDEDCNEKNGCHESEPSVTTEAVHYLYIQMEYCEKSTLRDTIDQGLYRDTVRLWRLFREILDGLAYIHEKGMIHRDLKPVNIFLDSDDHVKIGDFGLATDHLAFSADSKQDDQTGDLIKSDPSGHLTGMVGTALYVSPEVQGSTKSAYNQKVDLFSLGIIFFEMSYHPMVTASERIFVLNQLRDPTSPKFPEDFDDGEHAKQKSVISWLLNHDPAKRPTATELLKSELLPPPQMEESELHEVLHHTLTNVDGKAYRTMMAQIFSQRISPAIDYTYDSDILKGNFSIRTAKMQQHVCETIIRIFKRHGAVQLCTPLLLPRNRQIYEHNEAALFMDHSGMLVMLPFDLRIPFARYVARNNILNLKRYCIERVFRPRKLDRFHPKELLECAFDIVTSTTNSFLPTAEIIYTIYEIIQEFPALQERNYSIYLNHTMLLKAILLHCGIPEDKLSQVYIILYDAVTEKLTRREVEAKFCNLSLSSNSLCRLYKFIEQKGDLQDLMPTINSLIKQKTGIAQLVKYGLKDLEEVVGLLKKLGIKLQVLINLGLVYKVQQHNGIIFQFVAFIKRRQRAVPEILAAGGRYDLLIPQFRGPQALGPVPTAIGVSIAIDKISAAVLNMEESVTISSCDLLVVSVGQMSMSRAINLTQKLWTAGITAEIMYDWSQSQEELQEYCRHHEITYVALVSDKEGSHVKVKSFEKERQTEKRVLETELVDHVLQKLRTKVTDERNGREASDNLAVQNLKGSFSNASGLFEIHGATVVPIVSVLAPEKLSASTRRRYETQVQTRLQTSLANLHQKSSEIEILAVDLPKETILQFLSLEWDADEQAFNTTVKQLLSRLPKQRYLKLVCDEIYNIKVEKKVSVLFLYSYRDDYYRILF

**Q.** CC1(NC(=O)[C@@H]2CC[C@@H](Nc3ncc4c(Br)nn(-c5ccc6ncccc6c5)c4n3)C2)CCOC1 (stereo partly drawn) [(1R,3R)-3-((3-bromo-1-(quinolin-6-yl)-1H-pyrazolo[3,4-d]pyrimidin-6-yl)amino)-N-(3-methyltetrahydrofuran-3-yl)cyclopentane-1-carboxamide] was tested. Which IC50 did it give?
**A.** The IC50 was 25 to 200 nM.

**Q.** CNC(=O)[C@H]1C[C@H](Nc2ncc3c(Br)nn(-c4cc(F)c5ncccc5c4)c3n2)C1 was tested. Which IC50 did it give?
**A.** Its IC50 is 200 to 500 nM.

**Q.** With CP(C)(=O)[C@@H]1CC[C@@H](Nc2ncc3c(Br)nn(-c4cc(C#N)cc(OCC5(F)CNC5)c4)c3n2)C1 [3-[3-bromo-6-[[(1R,3R)-3-dimethylphosphorylcyclopentyl]amino]pyrazolo[3,4-d]pyrimidin-1-yl]-5-[(3-fluoroazetidin-3-yl)methoxy]benzonitrile] as the compound, how does the IC50 read?
**A.** Its IC50 is 25 to 200 nM.

**Q.** COc1cc(-n2nc(Br)c3cnc(N[C@@H]4CC[C@@H](C(=O)NCCS(C)(=O)=O)C4)nc32)ccn1 was tested. Which IC50 did it give?
**A.** Its IC50 is 500 to 1000 nM.

**Q.** With CNC(=O)C1(C(C)C#N)CC[C@@H](Nc2ncc3c(Br)nn(-c4ccc(-c5nnc(C)s5)cc4)c3n2)C1 (stereo partly shown) as the compound, how does the IC50 read?
**A.** The IC50 was 25 to 200 nM.

**Q.** CN1CCN(C(=O)[C@@H]2CC[C@@H](Nc3ncc4c(Br)nn(-c5cc(C#N)c6ncccc6c5)c4n3)C2)CC1=O [6-(3-bromo-6-(((1R,3R)-3-(4-methyl-3-oxo-piperazine-1-carbonyl)cyclopentyl)amino)-1H-pyrazolo[3,4-d]pyrimidin-1-yl)quinoline-8-carbonitrile] was tested. Which IC50 did it give?
**A.** The IC50 was 25 to 200 nM.

**Q.** With CNC(=O)[C@]1(C)CC[C@@H](Nc2ncc3c(Br)nn(-c4cc(Cl)cc([C@@H](C)N)c4)c3n2)C1 as the compound, how does the IC50 read?
**A.** The IC50 was < 25 nM.

**Q.** How did the IC50 turn out when CN1CN(C(=O)[C@@H]2CC[C@@H](Nc3ncc4c(Br)nn(-c5cc(C#N)c6ncccc6c5)c4n3)C2)CC1=O [6-(3-bromo-6-(((1R,3R)-3-(3-methyl-4-oxo-imidazolidine-1-carbonyl)cyclopentyl)amino)-1H-pyrazolo[3,4-d]pyrimidin-1-yl) quinoline-8-carbonitrile] was run?
**A.** Its IC50 is 25 to 200 nM.

**Q.** For CNC(=O)[C@]1(C)CC[C@@H](Nc2ncc3c(Br)nn(-c4ccc5c(c4)OCC(=O)N5CC#N)c3n2)C1 [(1R,3R)-3-[[3-bromo-1-[4-(cyanomethyl)-3-oxo-1,4-benzoxazin-7-yl]pyrazolo[3,4-d]pyrimidin-6-yl]amino]-N,1-dimethyl-cyclopentanecarboxamide], which IC50 is on record?
**A.** The IC50 was 25 to 200 nM.

**Q.** How did the IC50 turn out when CNC(=O)[C@]1(C)CC[C@@H](Nc2ncc3c(Br)nn(-c4ccc(-n5cncn5)cc4)c3n2)C1 [(1R,3R)-3-[[3-bromo-1-[4-(1,2,4-triazol-1-yl)phenyl]pyrazolo[3,4-d]pyrimidin-6-yl]amino]-N,1-dimethyl-cyclopentane-carboxamide] was run?
**A.** The IC50 was 25 to 200 nM.

**Q.** How did the IC50 turn out when O[C@@H]1CCC[C@@H]1Nc1ncc2c(Br)nn(-c3cc(F)c4ncccc4c3)c2n1 [(1R,2S)-2-[[3-bromo-1-(8-fluoro-6-quinolyl)pyrazolo[3,4-d]pyrimidin-6-yl]amino]cyclopentanol] was run?
**A.** Its IC50 is 25 to 200 nM.

**Q.** Fc1cc(-n2nc(Br)c3cnc(N[C@H]4CCOC4)nc32)cc2cccnc12 [3-bromo-1-(8-fluoro-6-quinolyl)-N-[(3S)-tetrahydrofuran-3-yl]pyrazolo [3,4-d]pyrimidin-6-amine] was tested. Which IC50 did it give?
**A.** The IC50 was 25 to 200 nM.

**Q.** With COCCN1CN(C(=O)C2(C)CC[C@@H](Nc3ncc4c(Br)nn(-c5cc(F)c6ncccc6c5)c4n3)C2)CC1=O (stereo partly drawn) [1-[(3R)-3-[[3-bromo-1-(8-fluoro-6-quinolyl)pyrazolo[3,4-d]pyrimidin-6-yl]amino]-1-methyl-cyclopentanecarbonyl]-3-(2-methoxyethyl)imidazolidin-4-one] as the compound, how does the IC50 read?
**A.** Its IC50 is < 25 nM.

**Q.** CNC(=O)CC1CC(Nc2ncc3c(Br)nn(-c4ccc(-c5nnc(C)s5)c(CCC#N)c4)c3n2)C1 (stereo not shown) was tested. Which IC50 did it give?
**A.** Its IC50 is 25 to 200 nM.

**Q.** CNC(=O)[C@@H]1CC[C@@H](Nc2ncc3c(Br)nn(-c4cc(C#N)c5c(c4)CCO5)c3n2)C1 [(1R,3R)-3-[[3-bromo-1-(7-cyano-2,3-dihydro-benzofuran-5-yl)pyrazolo[3,4-d]pyrimidin-6-yl]amino]-N-methyl-cyclopentanecarboxamide] was tested. Which IC50 did it give?
**A.** Its IC50 is 25 to 200 nM.

**Q.** Which IC50 does the source give for CNC(=O)[C@]1(C)CC[C@@H](Nc2ncc3c(Br)nn(-c4cc(C5=CCNC5)c5ncccc5c4)c3n2)C1 [(1R,3R)-3-[[3-bromo-1-[8-(2,5-dihydro-1H-pyrrol-3-yl)-6-quinolyl]pyrazolo [3,4-d]pyrimidin-6-yl]amino]-N,1-dimethyl-cyclopentanecarboxamide] here?
**A.** The IC50 was 25 to 200 nM.

**Q.** How did the IC50 turn out when O=C(NC1CCCN(CCF)C1)[C@@H]1CC[C@@H](Nc2ncc3c(Br)nn(-c4cc(F)c5ncccc5c4)c3n2)C1 (mixture of isomers) was run?
**A.** The IC50 was 25 to 200 nM.

**Q.** For CNC(=O)[C@]1(C)CC[C@@H](Nc2ncc3c(Br)nn(-c4ccc5c(c4)CCCN5)c3n2)C1 [(1R,3R)-3-[[3-bromo-1-(1,2,3,4-tetra-hydroquinolin-6-yl)pyrazolo[3,4-d]pyrimidin-6-yl]amino]-N,1-dimethyl-cyclopentanecarboxamide], which IC50 is on record?
**A.** The IC50 was 25 to 200 nM.

**Q.** With CNC(=O)[C@]1(C)CC[C@@H](Nc2ncc3c(Br)nn(-c4ccc(-c5nnc(C)s5)c(CC(O)C(F)(F)F)c4)c3n2)C1 (stereo partly drawn) [(1R,3R)-3-[[3-bromo-1-[4-(5-methyl-1,3,4-thiadiazol-2-yl)-3-(3,3,3-trifluoro-2-hydroxy-propyl)phenyl]pyrazolo[3,4-d]pyrimidin-6-yl]amino]-N,1-dimethyl-cyclopentane-carboxamide] as the compound, how does the IC50 read?
**A.** Its IC50 is 25 to 200 nM.

**Q.** CNC(=O)[C@]1(C)CC[C@@H](Nc2ncc3c(Br)nn(-c4ccc(C#N)c(OCCOC)c4)c3n2)C1 [(1R,3R)-3-[[3-bromo-1-[4-cyano-3-(2-methoxyethoxy)phenyl]pyrazolo[3,4-d]pyrimidin-6-yl]amino]-N,1-dimethyl-cyclopentanecarboxamide] was tested. Which IC50 did it give?
**A.** The IC50 was 25 to 200 nM.

**Q.** How did the IC50 turn out when C[C@H](N)c1cc(Cl)cc(-n2nc(Br)c3cnc(N[C@@H]4CC[C@@](C)(C(=O)NCC(F)F)C4)nc32)c1 [(1R,3R)-3-[[1-[3-[(1S)-1-aminoethyl]-5-chloro-phenyl]-3-bromo-pyrazolo[3,4-d]pyrimidin-6-yl]amino]-N-(2,2-difluoro-ethyl)-1-methyl-cyclopentanecarboxamide] was run?
**A.** The IC50 was 25 to 200 nM.

**Q.** CNC(=O)[C@]1(CC(F)F)CC[C@@H](Nc2ncc3c(Br)nn(-c4cc(CCO)c5ncccc5c4)c3n2)C1 [(1R,3R)-3-[[3-bromo-1-[8-(2-hydroxyethyl)-6-quinolyl]pyrazolo[3,4-d]pyrimidin-6-yl]amino]-1-(2,2-difluoroethyl)-N-methyl-cyclo-pentanecarboxamide] was tested. Which IC50 did it give?
**A.** The IC50 was 25 to 200 nM.

**Q.** CNC(=O)[C@]1(CC(F)(F)F)CC[C@@H](Nc2ncc3c(Br)nn(-c4cc(F)c5ncccc5c4)c3n2)C1 [(1R,3R)-3-[[3-bromo-1-(8-fluoro-6-quinolyl)pyrazolo[3,4-d]pyrimidin-6-yl]amino]-N-methyl-1-(2,2,2-trifluoroethyl)cyclopentane-carboxamide] was tested. Which IC50 did it give?
**A.** Its IC50 is < 25 nM.

**Q.** For C[C@@H]1CN(C(=O)[C@@H]2CC[C@@H](Nc3ncc4c(Br)nn(-c5ccc6ncccc6c5)c4n3)C2)CCO1 [((1R,3R)-3-((3-bromo-1-(quinolin-6-yl)-1H-pyrazolo[3,4-d]pyrimidin-6-yl)amino)cyclo-pentyl)((R)-2-methylmorpholino)methanone], which IC50 is on record?
**A.** The IC50 was 25 to 200 nM.

**Q.** How did the IC50 turn out when CNC(=O)[C@]1(C)CC[C@@H](Nc2ncc3c(Br)nn(-c4cc(CCNS(C)(=O)=O)c5ncccc5c4)c3n2)C1 [(1R,3R)-3-[[3-bromo-1-[8-[2-(methane-sulfonamido)ethyl]-6-quinolyl]pyrazolo [3,4-d]pyrimidin-6-yl]amino]-N,1-dimethyl-cyclopentanecarboxamide] was run?
**A.** Its IC50 is 25 to 200 nM.

**Q.** How did the IC50 turn out when CNC(=O)[C@]1(C)CC[C@@H](Nc2ncc3c(Br)nn(-c4cc(N)c5ncccc5c4)c3n2)C1 [(1R,3R)-3-[[1-(8-amino-6-quinolyl)-3-bromo-pyrazolo[3,4-d]pyrimidin-6-yl]amino]-N,1-dimethyl-cyclopentane-carboxamide] was run?
**A.** The IC50 was 25 to 200 nM.

**Q.** How did the IC50 turn out when CNS(=O)(=O)C1CC[C@@H](Nc2ncc3c(Br)nn(-c4ccc(-c5nnc(C)s5)c(C#N)c4)c3n2)C1 (stereo partly drawn) [(3R)-3-[[3-bromo-1-[3-cyano-4-(5-methyl-1,3,4-thiadiazol-2-yl)phenyl]pyrazolo[3,4-d]pyrimidin-6-yl]amino]-N-methyl-cyclopentanesulfonamide] was run?
**A.** Its IC50 is 25 to 200 nM.

**Q.** CNC(=O)[C@]1(C)CC[C@@H](Nc2ncc3c(Br)nn(-c4ccc(-c5nnc(C(=O)N(C)CCN(C)C)s5)cc4)c3n2)C1 [5-[4-[3-bromo-6-[[(1R,3R)-3-methyl-3-(methylcarbamoyl)cyclopentyl]amino]pyrazolo[3,4-d]pyrimidin-1-yl]phenyl]-N-[2-(dimethylamino)ethyl]-N-methyl-1,3,4-thiadiazole-2-carboxamide] was tested. Which IC50 did it give?
**A.** Its IC50 is 25 to 200 nM.

**Q.** COCC(C)(C)NC(=O)[C@@H]1CC[C@@H](Nc2ncc3c(Br)nn(-c4ccc5ncccc5c4)c3n2)C1 [(1R,3R)-3-((3-bromo-1-(quinolin-6-yl)-1H-pyrazolo[3,4-d]pyrimidin-6-yl)amino)-N-(1-methoxy-2-methylpropan-2-yl)cyclopentane-1-carboxamide] was tested. Which IC50 did it give?
**A.** Its IC50 is 200 to 500 nM.

**Q.** Which IC50 does the source give for Cc1nnc(-c2ccc(-n3nc(Br)c4cnc(N[C@@H]5CCC(C)(CP(C)(C)=O)C5)nc43)cc2CCC#N)s1 (stereo partly shown) here?
**A.** Its IC50 is 25 to 200 nM.

**Q.** For CNC(=O)[C@]1(C)CC[C@@H](Nc2ncc3c(Br)nn(-c4cc(CCC#N)c5ncccc5c4)c3n2)C1 [(1R,3R)-3-[[3-bromo-1-[8-(2-cyanoethyl)-6-quinolyl]pyrazolo[3,4-d]pyrimidin-6-yl]amino]-N,1-dimethyl-cyclopentane-carboxamide], which IC50 is on record?
**A.** The IC50 was < 25 nM.

**Q.** For N#Cc1cc(-n2nc(Br)c3cnc(N[C@@H]4CC[C@@H](C(=O)NCC5CC5)C4)nc32)cc2cccnc12 [(1R,3R)-3-((3-bromo-1-(8-cyanoquinolin-6-yl)-1H-pyrazolo[3,4-d]pyrimidin-6-yl)amino)-N-(cyclopropylmethyl)cyclo-pentane-1-carboxamide], which IC50 is on record?
**A.** Its IC50 is 25 to 200 nM.

**Q.** CNC(=O)C1(C)CC[C@@H](Nc2ncc3c(Br)nn(-c4ccc5nc(OC)ccc5c4)c3n2)C1 (stereo partly drawn) [(3R)-3-[[3-bromo-1-(2-methoxy-6-quinolyl)pyrazolo[3,4-d]pyrimidin-6-yl]amino]-N,1-dimethyl-cyclopentanecarboxamide] was tested. Which IC50 did it give?
**A.** Its IC50 is 25 to 200 nM.

**Q.** How did the IC50 turn out when O=C([C@@H]1CC[C@@H](Nc2ncc3c(Br)nn(-c4ccc5ncccc5c4)c3n2)C1)N1CCS(=O)(=O)CC1 [((1R,3R)-3-((3-bromo-1-(quinolin-6-yl)-1H-pyrazolo[3,4-d]pyrimidin-6-yl)amino)cyclo-pentyl)(1,1-dioxidothiomorpholino)methanone] was run?
**A.** The IC50 was 25 to 200 nM.

— US11046699B2, “Pyrazolo-pyrimidin-amino-cycloalkyl compounds and their therapeutic uses” (RAPT THERAPEUTICS, INC., priority 2018, dated 2021)
